Data taken from patent publication US8716282B2, “Imidazo[1,2-b]pyridazine derivatives and their use as PDE10 inhibitors” (Janssen Pharmaceutica NV, priority 2009, dated 2014).
≈ marks a conversion by molar mass, not a printed value. Where two headings read alike, the source gives them in different places.

Columns and labels:
[1] = target: T1, Rat recombinant PDE10A (rPDE10A2) (Rattus norvegicus, UniProt Q9QYJ6); experiment: In vitro assay PDE10A (SPA, 3H-cAMP); type: biochemical; details: Table 3; −log IC50 expressed in mol/L
T1 construct: inferred from metal chelate purification; made in house; host or cells: Sf9 insect cells, baculovirus
T1 sequence (Q9QYJ6 1-794): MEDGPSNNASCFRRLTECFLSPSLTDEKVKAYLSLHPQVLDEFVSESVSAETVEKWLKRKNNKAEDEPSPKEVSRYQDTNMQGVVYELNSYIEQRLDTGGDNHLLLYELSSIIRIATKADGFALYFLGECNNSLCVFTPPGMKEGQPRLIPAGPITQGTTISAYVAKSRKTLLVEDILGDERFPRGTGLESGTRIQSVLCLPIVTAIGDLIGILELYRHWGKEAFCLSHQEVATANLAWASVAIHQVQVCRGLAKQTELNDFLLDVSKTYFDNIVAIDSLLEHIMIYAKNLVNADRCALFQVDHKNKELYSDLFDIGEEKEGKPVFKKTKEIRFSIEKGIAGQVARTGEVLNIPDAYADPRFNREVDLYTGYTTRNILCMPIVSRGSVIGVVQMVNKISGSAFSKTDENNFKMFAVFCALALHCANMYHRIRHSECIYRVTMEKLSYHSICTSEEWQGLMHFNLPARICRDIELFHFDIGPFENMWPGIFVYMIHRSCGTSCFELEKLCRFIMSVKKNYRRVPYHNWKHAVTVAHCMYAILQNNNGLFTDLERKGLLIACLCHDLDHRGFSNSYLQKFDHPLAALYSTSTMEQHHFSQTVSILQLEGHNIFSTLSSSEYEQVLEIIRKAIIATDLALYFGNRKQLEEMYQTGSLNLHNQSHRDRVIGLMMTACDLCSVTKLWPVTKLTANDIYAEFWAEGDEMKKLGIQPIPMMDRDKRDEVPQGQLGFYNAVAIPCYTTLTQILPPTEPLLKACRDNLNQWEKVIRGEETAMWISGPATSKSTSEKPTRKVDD
Description: Rat recombinant PDE10A (rPDE10A2) was expressed in Sf9 cells using a recombinant rPDE10A baculovirus construct. Cells were harvested after 48 h of infection and the rPDE10A protein was purified by metal chelate chromatography on Ni-sepharose 6FF. Tested compounds were dissolved and diluted in 100% DMSO to a concentration 100 fold of the final concentration in the assay. […] 10 μl of rPDE10A enzyme in incubation buffer was added and the reaction was started by addition of 10 μl substrate to a final concentration of 60 nM cAMP and 0.008 μCi ^3H-cAMP. The reaction was incubated for 60 minutes at room temperature. […] After sedimentation of the beads during 30 minutes the radioactivity was measured in a Perkin Elmer Topcount scintillation counter and results were expressed as cpm. For blanc values the enzyme was omitted from the reaction and replaced by incubation buffer. Control values were obtained by addition of a final concentration of 1% DMSO instead of compound. The same assay principle is applied for the measurement of the affinity of the compound for other members of the PDE family with appropriate modifications in incubation buffer, substrate concentration, incubation time and stop solution.

[2] = system: apomorphine-induced stereotypy in rats; experiment: Apomorphine-induced stereotypy in rats (APO); type: in vivo, rat; details: n.d. = found not active at threshold dose 2.5 mg/kg, or 10 mg/kg if (a)
Description: Apomorphine (1.0 mg/kg, i.v.)-induced stereotypy (compulsive sniffing, licking, chewing) was scored every 5 min over the first hour after injection of apomorphine, following a 1 hour interval pre-treatment with the test compound. The score system was: (3) pronounced, (2) moderate, (1) slight, and (0) absent.

[3] = Intrinsic dissolution rate (IDR) of miniaturized pellets; type: physicochemical; details: 37.0±0.5° C.; for Average IDR: 0.01M HCl at 100 rpm, miniaturized pellets; for intrinsic dissolution rate (IDR): pellets of 0.0754 cm^2
Description: The intrinsic dissolution rate was measured using a DISS Profiler™ system consisting in both a mini-bath and UV fiber optic (5 mm pathlength) probes connected to a photodiode array (PDA) spectrophotometer (from pION Inc). Each pellet prepared were positioned in individual vessels. The intrinsic dissolution test was performed using 0.01 M HCl (20 mL) maintained at 37.0±0.5° C. with a stirring rate of 100 rpm. The concentration measurements were performed using UV detection at 326 nm. The intrinsic dissolution rate (IDR) was calculated by dividing the dissolution rate by the exposure area of pellet (0.0754 cm^2).

[4] = Solubility as a function of pH at 20° C.; type: physicochemical
Description: After removing the undissolved compound (0.45 μm Millex LCR filter), the concentration in the solution was determined using UV spectrometry. The pH of the solution was measured.

[5] = Adsorption-desorption (dynamic vapor sorption); type: physicochemical; details: for weight loss during the initial drying step: 60 min. under dry nitrogen at 25° C.; for hygroscopic behavior / physical form during the DVS test: DVS, 25° C., RH 0-95%
[6] = system: novel object recognition in female hooded-Lister rats; experiment: Object recognition test (NOR), sub-chronic PCP; type: in vivo, rat; details: for effects of acute treatment in the NOR task: compound 1 0.3-1.0 mg/kg, PQ10 1.0 mg/kg, oral, 30 min prior to testing
Description: 60 female hooded-Lister rats (Charles River, UK) were used as subjects for these studies and weighed 248 g±20 g. Rats were allowed at least a 7-day acclimatization period to the animal unit prior to commencement of experimentation. Rats were housed in groups of 5 under standard laboratory conditions under a 12 h light:dark cycle, lights on at 0700 h. All testing was carried out in the light phase. Food and water were freely provided. All experiments were conducted in accordance with the Animals Scientific Procedures Act, U.K. 1986 and were approved by the University of Bradford ethical review panel.
40 mg of test compound was dissolved in 5 ml of 40% hydroxypropyl β-cyclodextrin (HPBC) solution. The solution was sonicated until completely dissolved. 2 ml of sterile water was added and the pH measured and adjusted with NaOH solution (0.1N) to obtain pH ˜4. Finally, sterile water was added to a final volume of 10 ml. This stock solution was then diluted in 20% HPBC to obtain the final concentrations.
100 mg of PQ10 was dissolved in a 40% HPBC solution and 8 mg of tartaric acid. The solution was sonicated until completely dissolved. 5 ml of sterile water was added and the pH measured and adjusted with NaOH solution (0.1N) to obtain pH ˜4. Finally sterile water was added to a final volume of 10 ml.
Test compound was administered at doses of 0.3 and 1.0 mg/kg via the oral route 30 min prior to testing.
PQ10 was administered at a dose of 1.0 mg/kg via the oral route 30 min prior to testing.
Certain pre-clinical tests allow the observation of relatively subtle cognitive deficits in the rat that resemble cognitive symptoms in subjects with schizophrenia. The cognitive deficits observed are seen in behaviours such as episodic memory, which can be measured by recognition tasks such as the novel object recognition (NOR) paradigm. A recognition memory task allows the comparison between presented stimuli and previously stored information. […] Object recognition in rats can be measured as the difference in time spent exploring the familiar and the new object. […]

**Q.** With `COCCOc1cncc(-c2c(C)nc3c(-c4ccncc4)ccnn23)c1` [Compound 149, 3-[5-(2-methoxyethoxy)-3-pyridinyl]-2-methyl-8-(4-pyridinyl)-imidazo[1,2-b]pyridazine] as the compound, how does the “PDE10A2 pIC50” value [1] read?
**A.** 6.82

**Q.** What about the “APO ED50 (mg/kg)” value [2] of the same compound?
**A.** n.d. (n.d. means the compound was found not active at 2.5 or at 10 mg/kg (the latter being indicated as (a)), taken as threshold value, and was not further tested.)

**Q.** Which results are given for `COCCc1ccc(-c2c(C)nc3c(N4CCOCC4)ccnn23)cn1.O` [Compound 1c, 3-[6-(2-methoxyethyl)-3-pyridinyl]-2-methyl-8-(4-morpholinyl)-imidazo[1,2-b]pyridazine monohydrate]?
**A.** Average IDR [3]: 1.1011 mg · min^−1 · cm^−2; intrinsic dissolution rate (IDR) ([3]; 0.01 M HCl, 100 rpm): 1.10 mg·min^−1·cm^−2

**Q.** Which results are given for `COCCc1ccc(-c2c(C)nc3c(N4CCOCC4)ccnn23)cn1.O=P(O)(O)O` [Compound 1d, 3-[6-(2-methoxyethyl)-3-pyridinyl]-2-methyl-8-(4-morpholinyl)-imidazo[1,2-b]pyridazine phosphate]?
**A.** solubility ([4]; aqueous buffer, thermodynamic from solid, borate-KCl—NaOH buffer pH 9, pH of solution 7.4, phosphate salt, read-out: Solubility (mg/mL) of compound 1d): 0.1 mg/mL; solubility ([4]; aqueous buffer, thermodynamic from solid, citrate-NaOH buffer pH 5, pH of solution 4.9, phosphate salt, read-out: Solubility (mg/mL) of compound 1d): 0.14 mg/mL; solubility ([4]; aqueous buffer, thermodynamic from solid, citrate-NaOH—HCl buffer pH 2, pH of solution 2.5, phosphate salt, read-out: Solubility (mg/mL) of compound 1d): 20.2 mg/mL; solubility ([4]; aqueous buffer, thermodynamic from solid, phosphate buffer pH 7, pH of solution 6.8, phosphate salt, read-out: Solubility (mg/mL) of compound 1d): 0.09 mg/mL; solubility ([4]; aqueous buffer, thermodynamic from solid, phosphate-NaOH buffer pH 12, pH of solution 11.2, phosphate salt, read-out: Solubility (mg/mL) of compound 1d): 0.1 mg/mL; solubility compared to the anhydrous free base form (compound 1) ([4]; in vitro results): much higher solubility; solubility ([4]; pH 2.1, simulated gastric fluid, thermodynamic from solid, 0.1N HCl, pH of solution 2.1, phosphate salt, read-out: Solubility (mg/mL) of compound 1d): 46 mg/mL; solubility ([4]; pH 2.5, simulated gastric fluid, thermodynamic from solid, 0.01N HCl, pH of solution 2.5, phosphate salt, read-out: Solubility (mg/mL) of compound 1d): 11.9 mg/mL; solubility ([4]; pH 2.6, thermodynamic from solid, water, pH of solution 2.6, phosphate salt, read-out: Solubility (mg/mL) of compound 1d): 9.7 mg/mL; solubility ([4]; pH 12.5, aqueous buffer, thermodynamic from solid, 0.1N NaOH, pH of solution 12.5, phosphate salt, read-out: Solubility (mg/mL) of compound 1d): 0.1 mg/mL; Average IDR [3]: 2.5172 mg · min^−1 · cm^−2; time until pellets were totally dissolved ([3]; 0.01 M HCl, 100 rpm): ≤ 10 min; intrinsic dissolution rate (IDR) ([3]; 0.01 M HCl, 100 rpm): 2.52 mg·min^−1·cm^−2; weight loss during the initial drying step [5]: 0.3%; hygroscopic behavior [5]: no hygroscopic behavior; physical form during the DVS test [5]: remains crystalline

**Q.** Which results are given for `COCCc1ccc(-c2c(C)nc3c(N4CCOCC4)ccnn23)cn1` [Compound 1, 3-[6-(2-methoxyethyl)-3-pyridinyl]-2-methyl-8-(4-morpholinyl)-imidazo[1,2-b]pyridazine]?
**A.** solubility ([4]; aqueous buffer, thermodynamic from solid, borate-KCl—NaOH buffer pH 9, pH of solution 8.9, anhydrous free base): 0.009 mg/mL (≈ 25.5 µM); solubility ([4]; aqueous buffer, thermodynamic from solid, citrate-NaOH buffer pH 5, pH of solution 5.0, anhydrous free base): 0.012 mg/mL (≈ 34 µM); solubility ([4]; aqueous buffer, thermodynamic from solid, citrate-NaOH—HCl buffer pH 2, pH of solution 2.9, anhydrous free base): 0.61 mg/mL (≈ 1730 µM); solubility ([4]; aqueous buffer, thermodynamic from solid, phosphate buffer pH 7, pH of solution 7.0, anhydrous free base): 0.008 mg/mL (≈ 22.6 µM); solubility ([4]; aqueous buffer, thermodynamic from solid, phosphate-NaOH buffer pH 12, pH of solution 11.9, anhydrous free base): 0.008 mg/mL (≈ 22.6 µM); solubility ([4]; pH 2.5, simulated gastric fluid, thermodynamic from solid, 0.1N HCl, pH of solution 2.5, anhydrous free base): 2.5 mg/mL (≈ 7070 µM); solubility ([4]; pH 3, simulated gastric fluid, thermodynamic from solid, 0.01N HCl, pH of solution 3.0, anhydrous free base): 0.32 mg/mL (≈ 905 µM); solubility ([4]; pH 8.7, thermodynamic from solid, water, pH of solution 8.7, anhydrous free base): 0.009 mg/mL (≈ 25.5 µM); solubility ([4]; pH 12.9, aqueous buffer, thermodynamic from solid, 0.1N NaOH, pH of solution 12.9, anhydrous free base): 0.008 mg/mL (≈ 22.6 µM); Average IDR [3]: 0.8170 mg · min^−1 · cm^−2; intrinsic dissolution rate (IDR) ([3]; 0.01 M HCl, 100 rpm): 0.82 mg·min^−1·cm^−2; weight loss during the initial drying step [5]: 0.06%; hygroscopic behavior [5]: no hygroscopic behavior; physical form during the DVS test [5]: remained the same physical form; effects of acute treatment in the NOR task [6]: selective for the retention phase of the NOR task

**Q.** With `COc1cc2ncnc(N3CC[C@@H](Oc4cnc5ccccc5n4)C3)c2cc1OC` [PQ10] as the compound, how does the “T2(A) exploration time of familiar object, retention trial” value ([6]; PCP + 1 mg/kg p.o., mean) read?
**A.** 7.9 s

**Q.** And the “effects of acute treatment in the NOR task” value [6]?
**A.** selective for the retention phase of the NOR task
